Test results published in patent US20230257385A1, “SALT AND SOLID FORMS OF TABERNANTHALOG” (priority 2021, published 2023).

Assay: Suspension equilibration of sorbate salt at 20 and 40° C. (Example 10, Experiments 3, 4, 9)
Assay type: physicochemical
Conditions: one solvent per sample; for Observations (t = 1 d @ 40° C.) / Observations (t = 10 d @ 40° C.): sorbate salt Form A in 5 vol solvent; for Observations (t = 0 @ 40° C.): sorbate salt Form A, ca. 50 mg in 5 vol solvent; for XRPD (IPC, 6 d, wet) / XRPD (post oven dried): suspension equilibration at 40° C.; for XRPD (IPC, 6 d, wet): moist pellet after 6 d; for XRPD (post oven dried): pellet after oven drying
Procedure: The purpose of this panel is to determine if Form A evolves into a supra-ordinate form. The companion panel at 40° C. set-point is in place to detect enantiotropic behaviour via different relative proportions in different solvents. XRPD data of the moist pellets obtained from the suspension equilibration study at 20° C.
The relevant solvent (5 vol) was added to the appropriate vial and the suspensions were stirred and warmed to the predetermined temperature with stirring. […]

Row | SMILES | Observations (t = 1 d @ 40° C.) | Observations (t = 10 d @ 40° C.) | Observations (t = 0 @ 40° C.) | XRPD (IPC, 6 d, wet) | XRPD (post oven dried)
1 | CC=CC=CC(=O)O.COc1ccc2c3c([nH]c2c1)CCN(C)CC3 [Experiment 4-Sample K] | Suspension | Suspension | Suspension | Form A | Form A
2 | CC=CC=CC(=O)O.COc1ccc2c3c([nH]c2c1)CCN(C)CC3 [Experiment 4-Sample L] | Suspension | Suspension | Suspension | Form A | Form A
3 | C/C=C/C=C/C(=O)O.COc1ccc2c3c([nH]c2c1)CCN(C)CC3 [Experiment 4-Sample M] | Suspension | Suspension | Suspension | Form A | Form A
4 | CC=CC=CC(=O)O.COc1ccc2c3c([nH]c2c1)CCN(C)CC3 [Experiment 4-Sample N] | Suspension | Suspension | Suspension | Form A | Form A
5 | C/C=C/C=C/C(=O)O.COc1ccc2c3c([nH]c2c1)CCN(C)CC3 [Experiment 4-Sample O] | Suspension | Suspension | Suspension |  | 
